The record followed here is patent US10160729B2, “Hsp70 modulators and methods for making and using the same” (Memorial Sloan Kettering Cancer Center, priority 2014, dated 2018).

pEC50: −log10 of the molar value.

The assay relates to MOLM-13 cells. Briefly: Caspase cleavage assay (Caspase3, 7 activation). To be noted: Homo sapiens, 16 h treatment, caspase substrate Z-DEVD-R110, read-out: c* Concentration at which 50% of the maximum signal was achieved (caspase activation). The format is cell-based. The procedure, abridged:
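Cells (30,000/well, RPMI) treated 16 h with compound or DMSO in triplicate, then given buffer with 10 mM HEPES pH 7.5, 2 mM EDTA, 0.1% CHAPS and 25 μM Z-DEVD-R110. Fluorescence read once signal stabilized; results given as percentage increase in apoptotic cells versus DMSO-treated control.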
Take `CN1CCN(c2ncc(Sc3ccc(C(N)=O)c(Cl)c3)c(OCc3cccc(OC(F)F)c3)n2)CC1` [compound 121, 2-Chloro-4-((4-((3-(difluoromethoxy)benzyl)oxy)-2-(4-methylpiperazin-1-yl)pyrimidin-5-yl)thio)benzamide]: the pEC50 was 6.40 to 6.70.
Then `CN1CCN(c2ncc(Sc3ccc(C(N)=O)c(Cl)c3)c(OCc3cccc(O)c3)n2)CC1` [compound 122, 2-Chloro-4-((4-((3-hydroxybenzyl)oxy)-2-(4-methylpiperazin-1-yl)pyrimidin-5-yl)thio)benzamide], with 6.40 to 6.70; and `COc1cccc(COc2nc(N3CCN(C)CC3)ncc2Sc2ccc(C(N)=O)c(Cl)c2)n1` [compound 123, 2-Chloro-4-((4-((6-methoxypyridin-2-yl)methoxy)-2-(4-methylpiperazin-1-yl)pyrimidin-5-yl)thio)benzamide], with 6.40 to 6.70; and `COc1cc(COc2nc(N3CCN(C)CC3)ncc2Sc2ccc(C(N)=O)c(Cl)c2)ccn1` [compound 124, 2-Chloro-4-((4-((2-methoxypyridin-4-yl)methoxy)-2-(4-methylpiperazin-1-yl)pyrimidin-5-yl)thio)benzamide], with more than 6.70.
As for `COc1cncc(COc2nc(N3CCN(C)CC3)ncc2Sc2ccc(C(N)=O)c(Cl)c2)c1` [compound 125, 2-Chloro-4-((4-((5-methoxypyridin-3-yl)methoxy)-2-(4-methylpiperazin-1-yl)pyrimidin-5-yl)thio)benzamide], the pEC50 is more than 6.70.
Next, `COc1ccnc(COc2nc(N3CCN(C)CC3)ncc2Sc2ccc(C(N)=O)c(Cl)c2)c1` [compound 126, 2-Chloro-4-((4-((4-methoxypyridin-2-yl)methoxy)-2-(4-methylpiperazin-1-yl)pyrimidin-5-yl)thio)benzamide]: 6.40 to 6.70.
Then `CN1CCN(c2ncc(Sc3ccc(C(N)=O)c(Cl)c3)c(OCc3ccc(F)c(O)c3)n2)CC1` [compound 127, 2-Chloro-4-((4-((4-fluoro-3-hydroxybenzyl)oxy)-2-(4-methylpiperazin-1-yl)pyrimidin-5-yl)thio)benzamide], with 6.00 to 6.40; and `CN1CCN(c2ncc(Sc3ccc(C(N)=O)c(C(F)(F)F)c3)c(OCc3cccc(Cl)c3)n2)CC1` [compound 131, 4-((4-((3-Chlorobenzyl)oxy)-2-(4-methylpiperazin-1-yl)pyrimidin-5-yl)thio)-2-(trifluoromethyl)benzamide], with more than 6.70; and `CN1CCN(c2ncc(Sc3ccc(C(N)=O)c(C(F)(F)F)c3)c(OCc3ccc(F)c(Cl)c3)n2)CC1` [compound 132, 4-((4-((3-Chloro-4-fluorobenzyl)oxy)-2-(4-methylpiperazin-1-yl)pyrimidin-5-yl)thio)-2-(trifluoromethyl)benzamide], with more than 6.70.
Then `CN1CCN(c2ncc(Sc3ccc(C(N)=O)c(C(F)(F)F)c3)c(OCc3cc(Cl)ccc3F)n2)CC1` [compound 133, 4-((4-((5-Chloro-2-fluorobenzyl)oxy)-2-(4-methylpiperazin-1-yl)pyrimidin-5-yl)thio)-2-(trifluoromethyl)benzamide], with more than 6.70.
As to `CN1CCN(c2ncc(Sc3ccc(C(N)=O)c(C(F)(F)F)c3)c(OCc3ccc(F)c(Br)c3)n2)CC1` [compound 134, 4-((4-((3-Bromo-4-fluorobenzyl)oxy)-2-(4-methylpiperazin-1-yl)pyrimidin-5-yl)thio)-2-(trifluoromethyl)benzamide], the pEC50 was 6.40 to 6.70.
For `CN1CCN(c2ncc(Sc3ccc(C(N)=O)c(C(F)(F)F)c3)c(OCc3ccc(F)cc3F)n2)CC1` [compound 135, 4-((4-((2,4-Difluorobenzyl)oxy)-2-(4-methylpiperazin-1-yl)pyrimidin-5-yl)thio)-2-(trifluoromethyl)benzamide], the pEC50 was 6.40 to 6.70.
Next, `COc1cccc(COc2nc(N3CCN(C)CC3)ncc2Sc2ccc(C(N)=O)c(C(F)(F)F)c2)c1` [compound 136, 4-((4-((3-Methoxybenzyl)oxy)-2-(4-methylpiperazin-1-yl)pyrimidin-5-yl)thio)-2-(trifluoromethyl)benzamide]: more than 6.70; `COc1cc(COc2nc(N3CCN(C)CC3)ncc2Sc2ccc(C(N)=O)c(C(F)(F)F)c2)ccc1F` [compound 137, 4-((4-((4-Fluoro-3-methoxybenzyl)oxy)-2-(4-methylpiperazin-1-yl)pyrimidin-5-yl)thio)-2-(trifluoromethyl)benzamide]: more than 6.70; `COc1ccc(F)c(COc2nc(N3CCN(C)CC3)ncc2Sc2ccc(C(N)=O)c(C(F)(F)F)c2)c1` [compound 138, 4-((4-((2-Fluoro-5-methoxybenzyl)oxy)-2-(4-methylpiperazin-1-yl)pyrimidin-5-yl)thio)-2-(trifluoromethyl)benzamide]: more than 6.70.
Then `CN1CCN(c2ncc(Sc3ccc(C(N)=O)c(C(F)(F)F)c3)c(OCc3cccc(N(C)C)c3)n2)CC1` [compound 139, 4-((4-((3-(Dimethylamino)benzyl)oxy)-2-(4-methylpiperazin-1-yl)pyrimidin-5-yl)thio)-2-(trifluoromethyl)benzamide], with more than 6.70; and `CN1CCN(c2ncc(Sc3ccc(C(N)=O)c(C(F)(F)F)c3)c(NCc3cccc(Cl)c3)n2)CC1` [compound 141, 4-((4-((3-Chlorobenzyl)amino)-2-(4-methylpiperazin-1-yl)pyrimidin-5-yl)thio)-2-(trifluoromethyl)benzamide], with 5.92 to 6.00; and `COc1cc(COc2nc(N3CCN(C)CC3)ncc2Sc2ccc(N)nc2)ccc1F` [compound 151, 5-((4-((4-Fluoro-3-methoxybenzyl)oxy)-2-(4-methylpiperazin-1-yl)pyrimidin-5-yl)thio)pyridin-2-amine], with more than 6.70.
Then `CN1CCN(c2ncc(Sc3ccc(N)nc3)c(OCc3cccc(C#N)c3)n2)CC1` [compound 152, 3-(((5-((6-Aminopyridin-3-yl)thio)-2-(4-methylpiperazin-1-yl)pyrimidin-4-yl)oxy)methyl)benzonitrile], with 6.40 to 6.70; and `CN1CCN(c2ncc(Sc3ccc(N)nc3)c(OCc3cccc(N(C)C)c3)n2)CC1` [compound 153, 5-((4-((3-(Dimethylamino)benzyl)oxy)-2-(4-methylpiperazin-1-yl)pyrimidin-5-yl)thio)pyridin-2-amine], with more than 6.70.
In the case of `CN1CCN(c2ncc(Sc3ccc(N)nc3)c(OCc3ccc(F)c(Cl)c3)n2)CC1` [compound 154, 5-((4-((3-Chloro-4-fluorobenzyl)oxy)-2-(4-methylpiperazin-1-yl)pyrimidin-5-yl)thio)pyridin-2-amine], the pEC50 is more than 6.70.
Then `CN1CCN(c2ncc(Sc3ccc(N)nc3)c(OCc3ccc(F)c(Br)c3)n2)CC1` [compound 155, 5-((4-((3-Bromo-4-fluorobenzyl)oxy)-2-(4-methylpiperazin-1-yl)pyrimidin-5-yl)thio)pyridin-2-amine], with more than 6.70; and `CN1CCN(c2ncc(Sc3ccc(N)nc3)c(OCc3ccc(F)c(C(F)(F)F)c3)n2)CC1` [compound 156, 5-((4-((4-Fluoro-3-(trifluoromethyl)benzyl)oxy)-2-(4-methylpiperazin-1-yl)pyrimidin-5-yl)thio)pyridin-2-amine], with 6.40 to 6.70.
Then `COc1ccc(F)c(COc2nc(N3CCN(C)CC3)ncc2Sc2ccc(N)nc2)c1` [compound 157, 5-((4-((2-Fluoro-5-methoxybenzyl)oxy)-2-(4-methylpiperazin-1-yl)pyrimidin-5-yl)thio)pyridin-2-amine], with more than 6.70; and `COc1c(F)ccc(COc2nc(N3CCN(C)CC3)ncc2Sc2ccc(N)nc2)c1F` [compound 158, 5-((4-((2,4-Difluoro-3-methoxybenzyl)oxy)-2-(4-methylpiperazin-1-yl)pyrimidin-5-yl)thio)pyridin-2-amine], with more than 6.70; and `NC(=O)c1ccc(Sc2cnc(N3CCNCC3)nc2OCc2ccccc2)cc1` [compound 167, 4-((4-(Benzyloxy)-2-(piperazin-1-yl)pyrimidin-5-yl)thio)benzamide], with not above 5.92.
Next, `CC(=O)N1CCN(c2ncc(Sc3ccc(C(N)=O)cc3)c(OCc3ccccc3)n2)CC1` [compound 168, 4-((2-(4-Acetylpiperazin-1-yl)-4-(benzyloxy)pyrimidin-5-yl)thio)benzamide]: not above 5.92.
On to `C[C@@H]1CN(C)[C@@H](C)CN1c1ncc(Sc2ccc(C(N)=O)cc2)c(OCc2ccccc2)n1` [compound 182, 4-((4-(Benzyloxy)-2-((2R,5S)-2,4,5-trimethylpiperazin-1-yl)pyrimidin-5-yl)thio)benzamide], for which the pEC50 was not above 5.92.
Then `CN(C)c1cccc(COc2nc(-c3cc[nH]c3)ncc2Sc2ccc(C(N)=O)cc2)c1` [compound 187, 4-((4-((3-(Dimethylamino)benzyl)oxy)-2-(1H-pyrrol-3-yl)pyrimidin-5-yl)thio)benzamide], with 5.92 to 6.00; and `COc1cccc(COc2nc(N3CCN(C)C[C@H]3C)ncc2Sc2ccc(C(N)=O)cc2)c1` [compound 193, (R)-4-((2-(2,4-dimethylpiperazin-1-yl)-4-((3-methoxybenzyl)oxy)pyrimidin-5-yl)thio)benzamide], with not above 5.92.
Next, `COc1cccc(COc2nc(N3CC4CC3CN4C)ncc2Sc2ccc(C(N)=O)cc2)c1` (stereo not drawn) [compound 195]: not above 5.92.
Regarding `C#CCN1CCN(c2ncc(Sc3ccc(C(N)=O)cc3)c(OCc3cccc(OC)c3)n2)CC1` [compound 198, 4-((4-((3-Methoxybenzyl)oxy)-2-(4-(prop-2-yn-1-yl)piperazin-1-yl)pyrimidin-5-yl)thio)benzamide], the pEC50 is more than 6.70.
On to `CN(C)[C@@H]1CCN(c2ncc(Sc3ccc(C(N)=O)cc3)c(OCc3cccc(OC(F)(F)F)c3)n2)C1` [compound 205, (R)-4-((2-(3-(Dimethylamino)pyrrolidin-1-yl)-4-((3-(trifluoromethoxy)benzyl)oxy)pyrimidin-5-yl)thio)benzamide], for which the pEC50 was 6.00 to 6.40.
